This is an account of results in patent US8618151B2, “Inhibitors of HCV NS5A” (Presidio Pharmaceuticals, Inc., priority 2008, dated 2013).

Molecules are shown by their SMILES. Bounds are passed on as bounds.

The subject of this experiment is HCV genotype 1b replicon. As to the kind of experiment: HCV replicon assay (1b_Huh-Luc/Neo-ET cell line, luciferase readout). The experiment is classed as cell-based. Conditions: Hepatitis C virus, Huh-7, 72 h, read-out: Inhibition of HCV genotype 1b. As to the method: Biological activity of the compounds of the invention was determined using an HCV replicon assay. The 1b_Huh-Luc/Neo-ET cell line persistently expressing a bicistronic genotype 1b replicon in Huh 7 cells was obtained from ReBLikon GMBH. This cell line was used to test compound inhibition using luciferase enzyme activity readout as a measurement of compound inhibition of replicon levels.
On Day 1 (the day after plating), each compound is added in triplicate to the cells. Plates incubated for 72 h prior to running the luciferase assay. Enzyme activity was measured using a Bright-Glo Kit (cat. number E2620) manufactured by Promega Corporation. The following equation was used to generate a percent control value for each compound. % Control=(Average Compound Value/Average Control)*100
The EC50 value was determined using GraphPad Prism and the following equation: Y=Bottom+(Top−Bottom)/1+10^((Log IC50−X)*HillSlope))
EC50 values of compounds are repeated several times in the replicon assay.
In general terms: In antiviral work, replicon cells carry a viral genome segment that copies itself.
On to `COC(=O)N[C@H](C(=O)N1CCC[C@H]1c1ncc(-c2ccc(-c3ccc4cc(-c5c[nH]c([C@@H]6CCCN6C(=O)[C@H](NC(=O)NC6CC6)c6ccccc6)n5)ccc4n3)cc2)[nH]1)C(C)C` [compound 38], for which the EC50 was < 1 nM.

With `COC(=O)N[C@H](C(=O)N1CCC[C@H]1c1ncc(-c2ccc(-c3ccc4cc(-c5c[nH]c([C@@H]6CCCN6C(=O)[C@@H](NC(=O)OC)C6CCOCC6)n5)ccc4n3)cc2)[nH]1)C(C)C` [compound 39], the EC50 was < 1 nM.

Take `COC(=O)N[C@H](C(=O)N1CCC[C@H]1c1ncc(-c2ccc(-c3ccc4cc(-c5c[nH]c([C@@H]6CCCN6C(=O)[C@@H](NC(=O)OC)[C@@H](C)OC)n5)ccc4n3)cc2)[nH]1)C(C)C` [compound 40]: the EC50 was < 1 nM.

In the case of `COC(=O)N[C@@H](C)C(=O)N1CCC[C@H]1c1nc(-c2ccc3nc(-c4ccc(-c5cnc([C@@H]6CCCN6C(=O)[C@@H](NC(=O)OC)C(C)C)[nH]5)cc4)ccc3c2)c[nH]1` [compound 41], the EC50 was < 1 nM.

`COC(=O)N[C@H](C(=O)N1CCC[C@H]1c1nc(-c2ccc3nc(-c4ccc(-c5cnc([C@@H]6CCCN6C(=O)[C@@H](NC(=O)OC)C6CCOCC6)[nH]5)cc4)ccc3c2)c[nH]1)C(C)C` [compound 42]: the EC50 was < 1 nM.

Consider `COC(=O)N[C@H](C(=O)N1CCC[C@H]1c1nc(-c2ccc3nc(-c4ccc(-c5cnc([C@@H]6CCCN6C(=O)[C@@H](NC(=O)OC)[C@@H](C)OC)[nH]5)cc4)ccc3c2)c[nH]1)C(C)C` [compound 43], for which the EC50 was < 1 nM.

For the compound `COC(=O)N[C@@H](C)C(=O)N1CCC[C@H]1c1ncc(-c2ccc(-c3ccc4cc(-c5c[nH]c([C@@H]6CCCN6C(=O)[C@@H](NC(=O)OC)C(C)C)n5)ccc4n3)cc2)[nH]1` [compound 44], the EC50 was < 1 nM.

As to `COC(=O)N[C@H](C(=O)N1CCC[C@H]1c1ncc(-c2ccc(-c3ccc4cc(-c5c[nH]c([C@@H]6CCCN6C(=O)[C@H](NC(=O)OC)c6ccccc6)n5)cnc4c3)cc2)[nH]1)C(C)C` [compound 45], the EC50 was < 1 nM.

For the compound `COC(=O)N[C@H](C(=O)N1CCC[C@H]1c1nc(-c2ccc3cc(-c4ccc(-c5cnc([C@@H]6CCCN6C(=O)[C@@H](NC(=O)OC)C6CCOCC6)[nH]5)cc4)ccc3c2)c[nH]1)C(C)C` [compound 46], the EC50 is < 1 nM.

Turning to `COC(=O)N[C@H](C(=O)N1CCC[C@H]1c1ncc(-c2ccc(-c3ccc4cc(-c5c[nH]c([C@@H]6CCCN6C(=O)[C@@H](NC(=O)OC)C6CCOCC6)n5)ccc4c3)cc2)[nH]1)C(C)C` [compound 47], the EC50 was < 1 nM.

In the case of `COC(=O)N[C@H](C(=O)N1CCC[C@H]1c1ncc(-c2ccc(-c3ccc4cc(-c5c[nH]c([C@@H]6CCCN6C(=O)[C@H](NC(=O)OC)c6ccccc6)n5)ccc4c3)nc2)[nH]1)C(C)C` [compound 48], the EC50 was < 1 nM.

Regarding `COC(=O)N[C@H](C(=O)N1CCC[C@H]1c1nc(-c2cnc3cc(-c4ccc(-c5cnc([C@@H]6CCCN6C(=O)[C@@H](NC(=O)OC)C6CCOCC6)[nH]5)cc4)ccc3c2)c[nH]1)C(C)C` [compound 49], the EC50 was < 1 nM.

With `COC(=O)N[C@H](C(=O)N1CCC[C@H]1c1ncc(-c2ccc(-c3ccc4cc(-c5c[nH]c([C@@H]6CCCN6C(=O)[C@@H](NC(=O)OC)C6CCOCC6)n5)cnc4c3)cc2)[nH]1)C(C)C` [compound 50], the EC50 is < 1 nM.

On to `COC(=O)N[C@H](C(=O)N1CCC[C@H]1c1nc(-c2ccc3cc(-c4ccc(-c5cnc([C@@H]6CCCN6C(=O)[C@@H](NC(=O)OC)C6CCOCC6)[nH]5)cn4)ccc3c2)c[nH]1)C(C)C` [compound 51], for which the EC50 was < 1 nM.

On to `COC(=O)N[C@H](C(=O)N1CCC[C@H]1c1ncc(-c2ccc(-c3ccc4cc(-c5c[nH]c([C@@H]6CCCN6C(=O)[C@@H](NC(=O)OC)C6CCOCC6)n5)ccc4c3)nc2)[nH]1)C(C)C` [compound 52], for which the EC50 is < 1 nM.

On to `COC(=O)N[C@H](C(=O)N1CCC[C@H]1c1nc(-c2ccc3nc(-c4ccc(-c5cnc([C@@H]6CCCN6C(=O)[C@@H](NC(=O)OC)C(C)C)[nH]5)nc4)ccc3c2)c[nH]1)C(C)C` [compound 53], for which the EC50 was < 1 nM.

Take `COC(=O)N[C@@H](C(=O)N1CCC[C@H]1c1nc(-c2ccc3nc(-c4ccc(-c5cnc([C@@H]6CCCN6C(=O)[C@H](NC(=O)OC)c6ccccc6)[nH]5)nc4)ccc3c2)c[nH]1)c1ccccc1` [compound 54]: the EC50 is < 1 nM.

On to `COC(=O)N[C@H](C(=O)N1CCC[C@H]1c1nc(-c2ccc3cc(-c4ccc(-c5cnc([C@@H]6CCCN6C(=O)[C@H](NC(=O)OC)c6ccccc6)[nH]5)cn4)ccc3c2)c[nH]1)C(C)C` [compound 56], for which the EC50 was < 1 nM.

In the case of `COC(=O)N[C@H](C(=O)N1CCC[C@H]1c1nc(-c2cnc3cc(-c4ccc(-c5cnc([C@@H]6CCCN6C(=O)[C@@H](NC(=O)OC)C(C)C)[nH]5)cc4F)ccc3c2)c[nH]1)C(C)C` [compound 57], the EC50 is < 1 nM.

Regarding `COC(=O)N[C@H](C(=O)N1CCC[C@H]1c1ncc(-c2ccc(-c3ccc4cc(-c5c[nH]c([C@@H]6CCCN6C(=O)[C@H](NC(=O)OC)c6ccccc6)n5)cnc4c3)c(F)c2)[nH]1)C(C)C` [compound 58], the EC50 is < 1 nM.

Turning to `COC(=O)N[C@H](C(=O)N1CCC[C@H]1c1ncc(-c2ccc(-c3ccc4cc(-c5c[nH]c([C@@H]6CCCN6C(=O)[C@@H](NC(=O)OC)C6CCOCC6)n5)cnc4c3)c(F)c2)[nH]1)C(C)C` [compound 59], the EC50 is < 1 nM.

On to `COC(=O)N[C@H](C(=O)N1CCC[C@H]1c1ncc(-c2ccc(-c3ccc4cc(-c5c[nH]c([C@@H]6CCCN6C(=O)[C@H](NC(=O)OC)c6ccccc6)n5)cnc4c3)nc2)[nH]1)C(C)C` [compound 60], for which the EC50 is < 1 nM.

As for `COC(=O)N[C@H](C(=O)N1CCC[C@H]1c1ncc(-c2ccc(-c3ccc4cc(-c5c[nH]c([C@@H]6CCCN6C(=O)[C@@H](NC(=O)OC)C6CCOCC6)n5)cnc4c3)nc2)[nH]1)C(C)C` [compound 61], the EC50 was < 1 nM.

On to `COC(=O)N[C@H](C(=O)N1CCC[C@H]1c1nc(-c2cnc3cc(-c4ccc(-c5cnc([C@@H]6CCCN6C(=O)[C@@H](NC(=O)OC)C6CCOCC6)[nH]5)cn4)ccc3c2)c[nH]1)C(C)C` [compound 62], for which the EC50 was < 1 nM.

Regarding `COC(=O)N[C@H](C(=O)N1CCC[C@H]1c1nc(-c2ccc3cc(-c4ccc(-c5cnc([C@@H]6CCCN6C(=O)[C@H](NC(=O)OC)c6ccccc6)[nH]5)nc4)ccc3c2)c[nH]1)C(C)C` [compound 63], the EC50 was < 1 nM.

For `COC(=O)N[C@H](C(=O)N1CCC[C@H]1c1nc(-c2ccc3cc(-c4ccc(-c5cnc([C@@H]6CCCN6C(=O)[C@H](NC(=O)OC)c6ccccc6)[nH]5)cc4F)ccc3c2)c[nH]1)C(C)C` [compound 64], the EC50 was < 1 nM.

Consider `COC(=O)N[C@H](C(=O)N1CCC[C@H]1c1nc(-c2ccc3cc(-c4ccc(-c5cnc([C@@H]6CCCN6C(=O)[C@@H](NC(=O)OC)C6CCOCC6)[nH]5)cc4F)ccc3c2)c[nH]1)C(C)C` [compound 65], for which the EC50 was < 1 nM.

As to `COC(=O)N[C@H](C(=O)N1CCC[C@H]1c1nc(-c2ccc3cc(-c4ccc(-c5cnc([C@@H]6CCCN6C(=O)[C@@H](NC(=O)OC)C(C)C)[nH]5)cc4F)ccc3c2)c[nH]1)C(C)C` [compound 66], the EC50 was < 1 nM.

Turning to `COC(=O)N[C@H](C(=O)N1CCC[C@H]1c1ncc(-c2ccc(-c3ccc4cc(-c5c[nH]c([C@@H]6CCCN6C(=O)[C@H](NC(=O)OC)c6ccccc6)n5)ccc4c3)c(F)c2)[nH]1)C(C)C` [compound 67], the EC50 is < 1 nM.

For the compound `COC(=O)N[C@H](C(=O)N1CCC[C@H]1c1ncc(-c2ccc(-c3ccc4cc(-c5c[nH]c([C@@H]6CCCN6C(=O)[C@@H](NC(=O)OC)C6CCOCC6)n5)ccc4c3)c(F)c2)[nH]1)C(C)C` [compound 68], the EC50 was < 1 nM.

For the compound `COC(=O)N[C@H](C(=O)N1CCC[C@H]1c1nc(-c2ccc3cc(-c4ccc(-c5cnc([C@@H]6CCCN6C(=O)[C@H](NC(=O)OC)c6ccccc6)[nH]5)cc4C)ccc3c2)c[nH]1)C(C)C` [compound 69], the EC50 was < 1 nM.

As for `COC(=O)N[C@H](C(=O)N1CCC[C@H]1c1ncc(-c2ccc(-c3ccc4cc(-c5c[nH]c([C@@H]6CCCN6C(=O)[C@H](NC(=O)OC(C)(C)C)c6ccccc6)n5)ccc4n3)cn2)[nH]1)C(C)C` [compound 70], the EC50 is < 1 nM.

As to `COC(=O)N[C@H](C(=O)N1CCC[C@H]1c1nc(-c2cnc3cc(-c4ccc(-c5cnc([C@@H]6CCCN6C(=O)[C@H](NC(=O)OC)c6ccccc6)[nH]5)cc4)ccc3c2)c[nH]1)C1CCOCC1` [compound 71], the EC50 is < 1 nM.

As to `COC(=O)N[C@H](C(=O)N1CCC[C@H]1c1nc(-c2cnc3cc(-c4ccc(-c5cnc([C@@H]6CCCN6C(=O)[C@H](NC(=O)OC(C)(C)C)c6ccccc6)[nH]5)cc4)ccc3c2)c[nH]1)C1CCOCC1` [compound 72], the EC50 was < 1 nM.

`COC(=O)N[C@H](C(=O)N1CCC[C@H]1c1nc(-c2cnc3cc(-c4ccc(-c5cnc([C@@H]6CCCN6C(=O)[C@@H](NC(=O)OC)C6CCOCC6)[nH]5)cc4)ccc3c2)c[nH]1)C1CCOCC1` [compound 73]: the EC50 was < 1 nM.

Take `COC(=O)N[C@H](C(=O)N1CCC[C@H]1c1nc(-c2cnc3cc(-c4ccc(-c5cnc([C@@H]6CCCN6C(=O)[C@@H](NC(=O)OC)C(C)C)[nH]5)cn4)ccc3c2)c[nH]1)C(C)C` [compound 74]: the EC50 was < 1 nM.

In the case of `COC(=O)N[C@H](C(=O)N1CCC[C@H]1c1nc(-c2cnc3cc(-c4ccc(-c5cnc([C@@H]6CCCN6C(=O)[C@@H](NC(=O)OC)C6CCOCC6)[nH]5)cn4)ccc3c2)c[nH]1)C1CCOCC1` [compound 75], the EC50 is < 1 nM.
